Laboratory results published in patent publication US20250346585A1 (Alexion Pharmaceuticals, Inc., priority 2022, published 2025).
pIC50: −log10 of the molar value. Read-outs that look alike come from different tables or passages of the source.

Biological target: Human complement C1s enzyme (Homo sapiens (Human), UniProt P09871)
Assay: Human C1s enzyme assay
Format: biochemical
Conditions: read-out: IC50 (Stars)
Method in brief: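 IC50 derived by nonlinear regression of rate versus concentration, with rate taken from A405 kinetics (30 s intervals, 30 min) after adding 100 μM each Z-L-Lys-SBzl and DTNB. C1s from human serum, 1.16 nM, exposed to compound for 5 min at RT beforehand; buffer 50 mM Tris, 1 M NaCl, pH 7.5.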

[1] = Human C1s enzyme assay of Example 3
[2] = Human complement C1s enzyme 1.16 nM, substrate Z-L-Lys-SBzl 100 μM, assay of Example 3

Human complement C1s enzyme, sequence (P09871 438-688 limits assumed): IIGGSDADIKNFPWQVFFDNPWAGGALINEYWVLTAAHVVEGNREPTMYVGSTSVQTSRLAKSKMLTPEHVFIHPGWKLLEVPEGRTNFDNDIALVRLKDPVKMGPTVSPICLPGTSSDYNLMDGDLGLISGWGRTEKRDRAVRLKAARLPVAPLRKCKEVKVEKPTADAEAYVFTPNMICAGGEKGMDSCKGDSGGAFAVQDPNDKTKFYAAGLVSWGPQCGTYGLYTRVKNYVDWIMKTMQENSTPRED
Human complement C1s enzyme, sequence (P09871 16-437 partner limits assumed): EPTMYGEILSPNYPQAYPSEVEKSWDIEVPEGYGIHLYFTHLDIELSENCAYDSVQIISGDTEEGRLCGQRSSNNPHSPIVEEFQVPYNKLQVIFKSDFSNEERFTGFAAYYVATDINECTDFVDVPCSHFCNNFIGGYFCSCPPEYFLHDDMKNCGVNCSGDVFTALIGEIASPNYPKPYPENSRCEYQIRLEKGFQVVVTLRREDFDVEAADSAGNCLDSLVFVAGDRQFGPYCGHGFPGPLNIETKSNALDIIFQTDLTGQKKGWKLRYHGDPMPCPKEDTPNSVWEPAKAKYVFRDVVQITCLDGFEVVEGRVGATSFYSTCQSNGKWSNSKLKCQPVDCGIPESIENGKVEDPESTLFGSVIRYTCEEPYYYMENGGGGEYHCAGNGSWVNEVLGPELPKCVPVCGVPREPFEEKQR

With `C[C@@H](NC(=O)[C@@H]1C[C@]2(C)C[C@@H]2N1C(=O)CNC(=O)c1ccc2c(c1)-c1ccccc1C2(F)F)c1ccc(C(=N)N)s1` [Compound 29, (1S,3S,5S)—N—((R)-1-(5-carbamimidoylthiophen-2-yl)ethyl)-2-((9,9-difluoro-9H-fluorene-3-carbonyl)glycyl)-5-methyl-2-azabicyclo[3.1.0]hexane-3-carboxamide] the pIC50 [1] was over 7.00.

Compound `N=C(N)c1c[nH]c(CNC(=O)[C@@H]2CC3(CN2C(=O)CNC(=O)c2ccc4c(c2)-c2ccccc2C4(F)F)OCCO3)c1` [Compound 423, (S)-N-((4-carbamimidoyl-1H-pyrrol-2-yl)methyl)-7-((9,9-difluoro-9H-fluorene-3-carbonyl)glycyl)-1,4-dioxa-7-azaspiro[4.4]nonane-8-carboxamide] has a pIC50 (Human complement C1s enzyme 1.16 nM, substrate Z-L-Lys-SBzl, assay of Example 3) of over 7.00.

For `N=C(N)c1csc(CNC(=O)[C@@H]2CC3(CN2C(=O)CNC(=O)c2ccc(-c4ccc(F)cc4C(=O)O)cc2)OCCO3)c1` [Compound 227, (S)-4′-((2-(8-(((4-carbamimidoylthiophen-2-yl)methyl)carbamoyl)-1,4-dioxa-7-azaspiro[4.4]nonan-7-yl)-2-oxoethyl)carbamoyl)-4-fluoro-[1,1′-biphenyl]-2-carboxylic acid], the pIC50 [2] was over 7.00.

Compound `C[C@@H](NC(=O)[C@@H]1C[C@](F)(CF)CN1C(=O)CNC(=O)c1ccc(Oc2ccc(C(F)(F)F)cc2)cc1)c1cc(C(=N)N)cs1` [Compound 15, (2S,4R)—N-[(1R)-1-(4-carbamimidoylthiophen-2-yl)ethyl]-4-fluoro-4-(fluoromethyl)-1-[2-({4-[4-(trifluoromethyl)phenoxy]phenyl}formamido)acetyl]pyrrolidine-2-carboxamide] has a pIC50 [1] of over 7.00.

`Cc1ccc(-c2ccc(C(=O)NCC(=O)N3CC4(C[C@H]3C(=O)NCc3cc(C(=N)N)cs3)OCCO4)cc2)cc1` [Compound 108, (S)—N-((4-carbamimidoylthiophen-2-yl)methyl)-7-((4′-methyl-[1,1′-biphenyl]-4-carbonyl)glycyl)-1,4-dioxa-7-azaspiro[4.4]nonane-8-carboxamide] was tested, and the pIC50 [1] was over 7.00.

For `C[C@@H](NC(=O)[C@@H]1C[C@]2(C)C[C@@H]2N1C(=O)CNC(=O)c1ccc2c(c1)C(F)(F)c1ccccc1-2)c1cc(C(=N)N)cs1` [Compound 121, (1S,3S,5S)—N-[(1R)-1-(4-carbamimidoylthiophen-2-yl)ethyl]-2-{2-[(9,9-difluorofluoren-2-yl)formamido]acetyl}-5-methyl-2-azabicyclo[3.1.0]hexane-3-carboxamide], the pIC50 [1] was over 7.00.

`Cc1cc(-c2ccc(C(=O)NCC(=O)N3CC4(C[C@H]3C(=O)NCc3cc(C(=N)N)cs3)OCCO4)cc2)ccc1F` [Compound 199, (S)—N-((4-carbamimidoylthiophen-2-yl)methyl)-7-((4′-fluoro-3′-methyl-[1,1′-biphenyl]-4-carbonyl)glycyl)-1,4-dioxa-7-azaspiro[4.4]nonane-8-carboxamide] showed a pIC50 [2] of over 7.00.

`N=C(N)c1csc(CNC(=O)[C@@H]2CC3(CN2C(=O)CNC(=O)c2ccc(-c4cc(F)ccc4F)cc2)OCCO3)c1` [Compound 188, (S)—N-((4-carbamimidoylthiophen-2-yl)methyl)-7-((2′,5′-difluoro-[1,1′-biphenyl]-4-carbonyl)glycyl)-1,4-dioxa-7-azaspiro[4.4]nonane-8-carboxamide] gave a pIC50 [1] of over 7.00.

In the case of `COC[C@@]1(F)C[C@@H](C(=O)N[C@H](C)c2cc(C(=N)N)cs2)N(C(=O)CNC(=O)c2ccc3c(c2)sc2ccccc23)C1` [Compound 343, (2S,4R)—N—((R)-1-(4-carbamimidoylthiophen-2-yl)ethyl)-1-((dibenzo[b,d]thiophene-3-carbonyl)glycyl)-4-fluoro-4-(methoxymethyl)pyrrolidine-2-carboxamide], the pIC50 [2] was over 7.00.

`C[C@@H](NC(=O)[C@@H]1CC2(CN1C(=O)CNC(=O)c1ccc3c(c1)Oc1ccccc1S3)OCCO2)c1cc(C(=N)N)cs1` [Compound 271, (S)—N—((R)-1-(4-carbamimidoylthiophen-2-yl)ethyl)-7-((phenoxathiine-3-carbonyl)glycyl)-1,4-dioxa-7-azaspiro[4.4]nonane-8-carboxamide] was tested, and the pIC50 [2] was over 7.00.

`NS(=O)(=O)c1cncc(-c2csc(CNC(=O)[C@@H]3CC4(CN3C(=O)CNC(=O)c3ccc(Oc5ccc(F)cc5)cc3)OCCO4)c2)c1` [Compound 143, (S)-7-((4-(4-fluorophenoxy)benzoyl)glycyl)-N-((4-(5-sulfamoylpyridin-3-yl)thiophen-2-yl)methyl)-1,4-dioxa-7-azaspiro[4.4]nonane-8-carboxamide] showed a pIC50 [1] of under 6.00.

With `C[C@@H](NC(=O)c1ccc(-c2ccccc2)cc1)C(=O)N1CC2(C[C@H]1C(=O)NCc1cc(C(=N)N)cs1)OCCO2` [Compound 302, (S)-7-(([1,1′-biphenyl]-4-carbonyl)-D-alanyl)-N-((4-carbamimidoylthiophen-2-yl)methyl)-1,4-dioxa-7-azaspiro[4.4]nonane-8-carboxamide] the pIC50 [2] was over 7.00.

Compound `N=C(N)c1csc(CNC(=O)[C@@H]2CC3(CN2C(=O)CNC(=O)c2ccc(-c4ccc(F)cc4F)cc2)OCCO3)c1` [Compound 107, (S)—N-((4-carbamimidoylthiophen-2-yl)methyl)-7-((2′,4′-difluoro-[1,1′-biphenyl]-4-carbonyl)glycyl)-1,4-dioxa-7-azaspiro[4.4]nonane-8-carboxamide] has a pIC50 [1] of over 7.00.

Compound `C[C@@H](NC(=O)[C@@H]1CC2(CN1C(=O)CNC(=O)c1ccc3c(c1)-c1ccccc1C3(F)F)OCCO2)c1cc(-c2cnc(N)nc2)cs1` [Compound 100, (S)—N—((R)-1-(4-(2-aminopyrimidin-5-yl)thiophen-2-yl)ethyl)-7-((9,9-difluoro-9H-fluorene-3-carbonyl)glycyl)-1,4-dioxa-7-azaspiro[4.4]nonane-8-carboxamide] has a pIC50 [1] of under 6.00.

In the case of `CCS(=O)(=O)[C@@H]1C[C@@H](C(=O)N[C@H](C)c2cc(C(=N)N)cs2)N(C(=O)CNC(=O)c2ccc3c(c2)-c2ccccc2C3(F)F)C1` [Compound 238, (2S,4R)—N—((R)-1-(4-carbamimidoylthiophen-2-yl)ethyl)-1-((9,9-difluoro-9H-fluorene-3-carbonyl)glycyl)-4-(ethylsulfonyl)pyrrolidine-2-carboxamide], the pIC50 [2] was over 7.00.

For `COC[C@@]1(F)C[C@@H](C(=O)N[C@H](C)c2cc(C(=N)N)cs2)N(C(=O)CNC(=O)c2ccc3c(c2)C(C)(C)c2ccccc2-3)C1` [Compound 344, (2S,4R)—N—((R)-1-(4-carbamimidoylthiophen-2-yl)ethyl)-1-((9,9-dimethyl-9H-fluorene-2-carbonyl)glycyl)-4-fluoro-4-(methoxymethyl) pyrrolidine-2-carboxamide], the pIC50 [2] was over 7.00.

For `Cc1ccccc1[C@H]1C[C@@H](C(=O)N[C@H](C)c2cc(C(=N)N)cs2)N(C(=O)CNC(=O)c2ccc3c(c2)-c2ccccc2C3(F)F)C1` [Compound 119, (2S,4R)—N—((R)-1-(4-carbamimidoylthiophen-2-yl)ethyl)-1-((9,9-difluoro-9H-fluorene-3-carbonyl)glycyl)-4-(o-tolyl)pyrrolidine-2-carboxamide], the pIC50 [1] was over 7.00.

`C[C@@H](NC(=O)[C@@H]1C[C@]2(C)C[C@@H]2N1C(=O)CNC(=O)c1ccc(Oc2ccc(F)cc2)cc1)c1ccc(C(=N)N)s1` [Compound 67, (1S,3S,5S)—N—((R)-1-(5-carbamimidoylthiophen-2-yl)ethyl)-2-((4-(4-fluorophenoxy)benzoyl)glycyl)-5-methyl-2-azabicyclo[3.1.0]hexane-3-carboxamide] gave a pIC50 [1] of over 7.00.
